The text below walks through data of US6180341A, “In vitro scanning saturation mutagenesis of proteins” (priority 1998, dated 2001).

In assay [1] the target is anti-digoxin 26-10 scFv(Dig) variant HC9ST (heavy chain mutant). Format: binding, murine. Conditions: for kon: hapten-BSA conjugate immobilized on CM5 chip. The method, then: (§1) Single chain Fv mutants were produced and purified according to Burks (Burks and Iverson, 1995). The scFv genes from second round overlap extension PCR were ligated into pET25b plasmid and transformed into E. Coli BL21 (DE3) strain. Inclusion bodies that consist of scFvs were isolated from cell lysates and dissolved in 8 M urea. Soluble scFvs were purified by a metal chelating column (IMAC) and refolded by dialyzing against Tris buffer (50 mM Tris. HCl, pH 7.4, 500 mM KCl, 10% glycerol). Protein concentrations were determined by OD280 (Σ=44850) (Pace et al., 1995; Nieba et al., 1989). For the kinetics measurement, antibodies were further purified by a size exclusion gel filtration column Sepharose-75 (Pharmacia Biosensor AB, Sweden) to remove any dimeric or polymeric proteins.
(§2) The digoxin-BSA, digitoxin-BSA, digoxigenin-BSA and ouabain-BSA conjugates were immobilized on the surface of a sensor chip CM5 (approximately 400 RU) following the standard protocol from Pharmacia Biosensor. All kinetics experiments were performed in buffer containing 150 mM NaCl, 10 mM HEPES, 3.4 mM EDTA, and 0.005% P20, pH 7.4 at 25° C. with a flowrate of 60 μl/min (Myszka et al., 1997; Zeder-Lutz et al., 1997; Oddie et al., 1997). ScFv proteins over the concentration range of 25 nM to 400 nM were added to the chip for the association rate measurements. To prevent the rebinding of antibodies on the chip surface, soluble haptens (up to 1 mM) were added into elution buffer for the dissociation rate measurements (Schier et al., 1996). The antibody bound chip was regenerated by 50% ethylene glycol, pH 10. The values of association and dissociation rate of antibodies were calculated using BIAevaluation software from Pharmacia Biosensor. kon was determined from a plot of (ln(dR/dt))/t versus concentration (Karlson et al., 1991). koff was determined from a plot of ln(Ro/R) versus time.
(§3) In additional studies, values for the association and dissociation rate constants (kon and koff, respectively) were measured using a BIAcore 1000 for the wild-type and 14 selected mutant scFv antibodies. […] The selected scFv antibodies were expressed and purified following the procedure described by Burks and Iverson (1995). In each case, care was taken to insure that the kinetic values measured on the BlAcore are free of artifacts due to rebinding or avidity effects arising from multimeric scFvs.

In assay [2] the test system is anti-digoxin 26-10 scFv(Dig) variant LC94F (light chain residue 94→Phe). Format: binding, murine. Conditions: for kon: hapten-BSA conjugate immobilized on CM5 chip. The method, then:
as §1, §2, §3

Assay [3] relates to anti-digoxin 26-10 scFv(Dig) variant HC100H (H:Trp-100→His). Format: binding, murine. The settings on record: for kon: hapten-BSA conjugate immobilized on CM5 chip. The method, then: as §1, §2, §3
Assay [4] relates to anti-digoxin 26-10 scFv(Dig) variant LC96F (L:Pro-96→Phe). Format: binding, murine. The method, then:
as §1, §2, §3

For assay [5], the system named is anti-digoxin 26-10 scFv(Dig) variant HC50F (H:Tyr50→Phe). The assay is classed as binding, murine. The settings on record: for kon: hapten-BSA conjugate immobilized on CM5 chip. The method, then:
as §1, §2, §3

The test system of assay [6] is anti-digoxin 26-10 scFv(Dig) variant HC100K (H:Trp-100→Lys). The assay is classed as binding, murine. The settings on record: for kon: hapten-BSA conjugate immobilized on CM5 chip. The method, then: as §1, §2, §3
The subject of assay [7] is anti-digoxin 26-10 scFv(Dig) variant LC94Y (L:Val-94→Tyr). Format: binding, murine. The settings on record: for kon: hapten-BSA conjugate immobilized on CM5 chip. The method, then: as §1, §2, §3
Assay [8] concerns the target anti-digoxin 26-10 scFv(Dig) variant HC100R (H:Trp-100→Arg). The assay is classed as binding, murine. The settings on record: for kon: hapten-BSA conjugate immobilized on CM5 chip. The method, then:
as §1, §2, §3

The test system of assay [9] is anti-digoxin single chain Fv scFv(Dig) derived from anti-digoxin 26-10 murine monoclonal antibody, wild type (WT), SEQ ID NO:132. The assay is classed as binding. The settings on record: for kon: hapten-BSA conjugate immobilized on CM5 chip. The method, then:
as §1, §2, §3

Assay [10] concerns the target anti-digoxin 26-10 murine monoclonal antibody. Conditions: literature (Schildbach et al., 1993); cited from earlier work.
Where [11] appears, read: SPR, hapten-BSA conjugate on chip, pH 7.4, 25° C.
Setting [12] is: SPR, hapten-BSA conjugate on chip, soluble hapten in elution buffer, pH 7.4, 25° C.

Like-named read-outs stand apart in the source and are kept apart here.

Usually kon stands for a measure of how fast the partners come together. Low readings indicate slow association, high ones fast association. With `C[C@]12CC[C@H](O)C[C@H]1CC[C@@H]1[C@@H]2CC[C@]2(C)[C@@H](C3=CC(=O)OC3)CC[C@]12O` [Digitoxigenin], the Ka in assay [1] (setting [11]) amounted to 7e+08 M⁻¹; in assay [3] (setting [11]), 1e+08 M⁻¹; in assay [5] (setting [11]), 4.5e+08 M⁻¹; in assay [8] (setting [11]), 4.2e+07 M⁻¹. Moreover, the koff in assay [1] (setting [12]) is listed as 1.00; in assay [2] (setting [12]), 8.9 × 10^-2; in assay [3] (setting [12]) it was 9.7 × 10^-2; in assay [4] (setting [12]), 0.169; in assay [5] (setting [12]) it was 2.2 × 10^-2; in assay [6] (setting [12]) it was 1.48. The koff is reported as 1.8 × 10^-1 in [7] (setting [12]), 1.7 × 10^-1 in [8] (setting [12]) and 2.3 × 10^-2 in assay [9] (setting [12]). Besides, the kon was 1e+06 M⁻¹ s⁻¹ in assay [2] (SPR, pH 7.4, 25° C.); 1e+06 M⁻¹ s⁻¹ in assay [3] (SPR, pH 7.4, 25° C.); 1e+06 M⁻¹ s⁻¹ in assay [5] (SPR, pH 7.4, 25° C.); 1e+06 M⁻¹ s⁻¹ in assay [6] (SPR, pH 7.4, 25° C.); 1.1e+06 M⁻¹ s⁻¹ in [7] (SPR, pH 7.4, 25° C.); 1e+06 M⁻¹ s⁻¹ in [9] (SPR, pH 7.4, 25° C.).
With `C[C@H]1O[C@@H](O[C@H]2[C@@H](O)C[C@H](O[C@H]3[C@@H](O)C[C@H](O[C@H]4CC[C@@]5(C)[C@H](CC[C@@H]6[C@@H]5CC[C@]5(C)[C@@H](C7=CC(=O)OC7)CC[C@]65O)C4)O[C@@H]3C)O[C@@H]2C)C[C@H](O)[C@@H]1O` [Digitoxin, digitoxin], the Ka result in [10] was “approximately 9×10^9 M^-1”; in [1] (setting [11]), 9e+06 M⁻¹; in assay [3] (setting [11]), 0 M⁻¹; in assay [4] (setting [11]) it was 8.4e+07 M⁻¹; in [6] (setting [11]), 0 M⁻¹. The kon in assay [1] (SPR, pH 7.4, 25° C.) was 1e+06 M⁻¹ s⁻¹; in [2] (SPR, pH 7.4, 25° C.) it was 1.3e+06 M⁻¹ s⁻¹; in assay [5] (SPR, pH 7.4, 25° C.), 960000 M⁻¹ s⁻¹; in assay [7] (SPR, pH 7.4, 25° C.) it was 1.15e+06 M⁻¹ s⁻¹; in assay [8] (SPR, pH 7.4, 25° C.) it was 930000 M⁻¹ s⁻¹; in assay [9] (SPR, pH 7.4, 25° C.) it was 1e+06 M⁻¹ s⁻¹. The koff in assay [1] (setting [12]) is recorded as 0.11; in assay [2] (setting [12]), 1.3 × 10^-3; in assay [3] (setting [12]) it was 9.7 × 10^-3; in [4] (setting [12]), 0.014; in [5] (setting [12]) it was 1.7 × 10^-3; in assay [6] (setting [12]), 0.09. Moreover, the koff in assay [7] (setting [12]) is 2.7 × 10^-3; in assay [8] (setting [12]) it was 8.2 × 10^-3; in [9] (setting [12]) it was 1.3 × 10^-3.
For `C[C@H]1O[C@@H](O[C@H]2[C@@H](O)C[C@H](O[C@H]3[C@@H](O)C[C@H](O[C@H]4CC[C@@]5(C)[C@H](CC[C@@H]6[C@@H]5C[C@@H](O)[C@]5(C)[C@@H](C7=CC(=O)OC7)CC[C@]65O)C4)O[C@@H]3C)O[C@@H]2C)C[C@H](O)[C@@H]1O` [Digoxin, digoxin], the figures for the Ka result in [10] and in [4] (setting [11]) were “approximately 9×10^9 M^-1” and 500000 M⁻¹, respectively. Also, the kon stood at 1.4e+06 M⁻¹ s⁻¹ in assay [1] (SPR, pH 7.4, 25° C.); 1.2e+06 M⁻¹ s⁻¹ in assay [2] (SPR, pH 7.4, 25° C.); 1e+06 M⁻¹ s⁻¹ in assay [3] (SPR, pH 7.4, 25° C.); 1e+08 M⁻¹ s⁻¹ in assay [4] (SPR, hapten-BSA conjugate immobilized on CM5 chip, pH 7.4, 25° C.); 1.5e+06 M⁻¹ s⁻¹ in [5] (SPR, pH 7.4, 25° C.); 940000 M⁻¹ s⁻¹ in assay [6] (SPR, pH 7.4, 25° C.). Moreover, the kon in assay [7] (SPR, pH 7.4, 25° C.) was 1.2e+06 M⁻¹ s⁻¹; in assay [8] (SPR, pH 7.4, 25° C.) it was 1.3e+06 M⁻¹ s⁻¹; in [9] (SPR, pH 7.4, 25° C.), 1.2e+08 M⁻¹ s⁻¹. Besides, the koff in assay [1] (pH 7.4) was 5.4 × 10^-3; in [2] (pH 7.4), 1.9 × 10^-3; in assay [3] (pH 7.4), 2.0 × 10^-3; in [4] (pH 7.4), 2; in [5] (pH 7.4) it was 5.8 × 10^-4; in assay [6] (pH 7.4) it was 8.0 × 10^-2. Moreover, the koff is reported as 5.2 × 10^-3 in assay [7] (pH 7.4), 5.0 × 10^-3 in assay [8] (pH 7.4) and 7.0 × 10^-4 in assay [9] (pH 7.4).
As for `C[C@@H]1O[C@@H](O[C@H]2C[C@@H](O)[C@]3(CO)[C@H]4[C@H](O)C[C@]5(C)[C@@H](C6=CC(=O)OC6)CC[C@]5(O)[C@@H]4CC[C@]3(O)C2)[C@H](O)[C@H](O)[C@H]1O` [Ouabain, ouabain], the “fold lower affinity than for digoxin, digitoxin and digoxigenin” value in assay [10] is given as 42 fold. The kon in [1] (SPR, pH 7.4, 25° C.) was found to be 100000 M⁻¹ s⁻¹; in assay [2] (SPR, pH 7.4, 25° C.), 1e+06 M⁻¹ s⁻¹; in [3] (SPR, pH 7.4, 25° C.), 1e+06 M⁻¹ s⁻¹; in [5] (SPR, pH 7.4, 25° C.), 1e+06 M⁻¹ s⁻¹; in assay [7] (SPR, pH 7.4, 25° C.) it was 1e+06 M⁻¹ s⁻¹; in assay [8] (SPR, pH 7.4, 25° C.) it was 1e+06 M⁻¹ s⁻¹. Also, the kon in assay [9] (SPR, pH 7.4, 25° C.) was 1e+06 M⁻¹ s⁻¹. In addition, the Ka amounted to 6.7e+06 M⁻¹ in assay [1] (setting [11]), 1.1e+07 M⁻¹ in assay [3] (setting [11]), 7.9e+07 M⁻¹ in assay [5] (setting [11]) and 8.3e+06 M⁻¹ in assay [8] (setting [11]). Also, the koff is recorded as 0.12 in [1] (setting [12]); 1.0 × 10^-2 in assay [2] (setting [12]); 0.09 in assay [3] (setting [12]); 0.3 in assay [4] (setting [12]); 0.013 in [5] (setting [12]); 0.60 in [6] (setting [12]). In addition, the koff was 1.7 × 10^-2 in assay [7] (setting [12]), 0.12 in assay [8] (setting [12]) and 1.5 × 10^-2 in assay [9] (setting [12]).
With `C[C@]12CC[C@H](O)C[C@H]1CC[C@@H]1[C@@H]2C[C@@H](O)[C@]2(C)[C@@H](C3=CC(=O)OC3)CC[C@]12O` [digoxigenin], the Ka entry in assay [10] is recorded as “approximately 9×10^9 M^-1”.
